Measurements taken from EP3524067B1, “SPRAY-DRIED MIXTURE OF HUMAN MILK OLIGOSACCHARIDES” (Chr. Hansen HMO GmbH, priority 2018, dated 2019).

Experiments:
[1] = Powder particle size by laser diffraction; type: physicochemical; set-up: Size, Mean: unit not given here; conditions: dispersed in isooctane; mean ± standard deviation of 3 measurements
Method: The powder particle size was assessed by laser diffraction. The system detects scattered and diffracted light by an array of concentrically arranged sensor elements. The software-algorithm is then approximating the particle counts by calculating the z-values of the light intensity values, which arrive at the different sensor elements. The analysis was executed using a SALD-7500 Aggregate Sizer (Shimadzu Corporation, Kyoto, Japan) quantitative laser diffraction system (qLD).
A small amount (spatula tip) of each sample was dispersed in 2 ml isooctane and homogenized by ultrasonication for five minutes. The dispersion was transferred into a batch cell filled with isooctane and analyzed in manual mode.
Data acquisition settings were as follows: Signal Averaging Count per Measurement: 128, Signal Accumulation Count: 3, and Interval: 2 seconds.
Prior to measurement, the system was blanked with isooctane. Each sample dispersion was measured 3 times and the mean values and the standard deviation are reported. Data was evaluated using software WING SALD II version V3.1. Since the refractive index of the sample was unknown, the refractive index of sugar (disaccharide) particles (1.530) was used for determination of size distribution profiles. Size values for mean and median diameter are reported.

[2] = Differential scanning calorimetry (DSC) of spray-dried human milk oligosaccharides; type: physicochemical; conditions: spray-dried powder; for endothermal event, normalized energy / endothermal event, peak temperature: DSC heating scan (first heating scan where stated); for Tg, 1st heating scan / Tg, 2nd heating scan: glass transition temperature; for Tg, 1st heating scan: midpoint of endothermic shift, reheated to 100 °C at 10 K/min; for Tg, 2nd heating scan: second heating cycle, reheated to 150 °C
From the text: Using differential scanning calorimetry (DSC) on a Mettler Toledo 821e (Mettler Toledo, Giessen, Germany) thermal events of spray-dried human milk oligosaccharides, namely 3-fucosyllactose, 6'-sialyllactose, 3'-sialyllactose, lacto-N-tetraose, and spray-dried mixtures of human milk oligosaccharides, a mixture (HMO-Mix I) of 2'-fucosyllactose/lacto-N-tetraose, and a mixture (HMO Mix II) of 2'-fucosyllactose, 3-fucosyllactose, lacto-N-tetraose, 6'-sialyllactose, 3'-sialyllactose, respectively, were determined.
A Mettler Toledo 821e (Mettler Toledo, Giessen, Germany) was used to determine thermal events of the spray-dried products (glass transition temperature (Tg), further exo- and endothermic events).
Approximately 25 mg of the spray-dried human milk oligosaccharides were analyzed in crimped Al-crucibles (Mettler Toledo, Giessen, Germany). The samples were cooled to 0 °C with 10 K/min and reheated to 100 °C with a scanning rate of 10 K/min. After cooling down the samples to 0 °C in a second heating cycle, the samples were reheated to 150 °C. The midpoint of the endothermic shift of the baseline during the heating scan was taken as glass transition temperature (Tg). Exothermic and endothermic peaks are reported by means of the peak temperature and the normalized energy of the event.

Row | Size, Mean [1] | Size, Median [1] [µm] | endothermal event, normalized energy [2] [J/g] | endothermal event, peak temperature [2] | Tg, 1st heating scan [2] | Tg, 2nd heating scan [2] | Tg, 2nd heating scan ([2]; listed as lacto-N-tetraose) | endothermal relaxation peak after Tg ([2]; first heating scan, result in words) | endothermal events ([2]; result in words) | Compound
1 | 117.3 ± 0.7 | 141 | -6.04 | about 89 °C | 49,9 °C | 79,4 °C | about 79 °C | – | – | CC(=O)N[C@H]1[C@H](O[C@H]2[C@@H](O)[C@@H](CO)O[C@@H](O[C@H]3[C@H](O)[C@@H](O)C(O)O[C@@H]3CO)[C@@H]2O)O[C@H](CO)[C@@H](O)[C@@H]1O[C@@H]1O[C@H](CO)[C@H](O)[C@H](O)[C@H]1O (some centres unmarked) [Lacto-N-tetraose, lacto-N-tetraose]
2 | – | 141 | -0.22 | 77 °C | 47,6 °C | 49,6 °C | – | detected | – | CC(=O)N[C@H]1[C@H]([C@H](O)[C@H](O)CO)O[C@@](OC[C@H]2O[C@@H](O[C@H]3[C@H](O)[C@@H](O)[C@H](O)O[C@@H]3CO)[C@H](O)[C@@H](O)[C@H]2O)(C(=O)O)C[C@@H]1O [6'-sialyllactose]
3 | – | 122 ± 16.7 | – | – | 48,8 °C | 54,3 °C | – | – | No endothermal events were detected | CC(=O)N[C@H]1[C@H]([C@H](O)[C@H](O)CO)O[C@@](O[C@H]2[C@@H](O)[C@@H](CO)O[C@@H](O[C@H]3[C@H](O)[C@@H](O)C(O)O[C@@H]3CO)[C@@H]2O)(C(=O)O)C[C@@H]1O (some centres unmarked) [3'-sialyllactose]
